The source of these data is paper PMC8880313, “Discovery of Novel Andrographolide Derivatives as Antiviral Inhibitors against Human Enterovirus A71” (Pharmaceuticals, 2022).

Molecules are shown by their SMILES.

The subject of one assay is CV-B5. Kind of assay: Post-treatment assay, antiviral spectrum. In kind it is cell-based, Coxsackievirus B5. The procedure: (§1) We were also interested in the antiviral potential of ZAF-47 against other Enteroviruses. As such, we performed post-treatment assay on RD cells infected with other Enteroviruses such as CV-A16, CV-A6, Echo7, CV-B5, CV-A24 and EV-D68.
(§2) To determine the inhibitory profiles of the hits, post treatment assay was performed. Seeded 24-well plates, with 1.5 × 10^5 RD cells per well, were incubated overnight at 37 °C with 5% CO2. The seeded cells were infected with EV-A71 (100 µL per well, MOI = 1) for 1 h at 37 °C with 5% CO2 and then rinsed with 1 mL of PBS twice. Different concentrations of the hits were used to treat the infected cells for 12 h at 37 °C with 5% CO2. At 12 hpi, the plates were frozen and thawed for 2 cycles (−80°C; 37 °C) before collection of supernatants to measure the viral titres via viral plaque assay.
(§3) Measurement of the viral titres from collected supernatants was derived from viral plaque assays. To do this, 24-well plates, seeded with 2.4 × 10^5 RD cells per well, were used in plaque assays for EV-A71, EV-D68, Echo7, CV-A6, CV-A16 and CV-A24 while 24-well plates, seeded with 1.2 × 10^5 Vero cells per well, were used in plaque assays for CV-B5. Seeded cells were incubated overnight at 37 °C with 5% CO2. […] Subsequent formation of viral plaques was counted manually to quantify the viral titre in PFU/mL […]

The test system of a further assay is EV-A71 virions. The assay can be described thus: Co-treatment assay. Format: cell-based, human enterovirus A71 (EV-A71) strain 41. The note with it: 20 µM with virions for 30 min, 12 hpi. The procedure:
To confirm this finding, assays to investigate the effect of ZAF-47 on EV-A71 entry into cells were performed. With pre-treatment assay, we first treated the cells with different concentrations of ZAF-47 before subjecting them to EV-A71 infection. The aim was to investigate if ZAF-47 was able to bind to host surface receptors which would prevent the virions from binding and thus blocking viral entry. […] Even at the highest concentration, the reduction in viral titre (0.8 log10 PFU/mL decrease) was not as pronounced as post-treatment and could likely be due to drug toxicity. Thus, it is unlikely that ZAF-47 inhibits EV-A71 infection by binding with host receptors to block viral entry. With co-treatment assay, we first treated EV-A71 virions with ZAF-47 for 30 min before infecting the cells. The aim was to investigate if ZAF-47 was able to bind to viral surface proteins which would prevent the virions from binding to the host receptors and thus blocking viral entry. […] Thus, it is unlikely that ZAF-47 blocks EV-A71 entry into host cells by binding to viral surface proteins. Instead, using entry bypass assay, we were able to deduce that ZAF-47 most likely targets EV-A71 post-entry stages. […]
Seeded 24-well plates, with 1.5 × 10^5 RD cells per well, were incubated overnight at 37 °C with 5% CO2. […] The plates were frozen down at 12 hpi for viral titre quantification using viral plaque assay.

The next assay relates to CV-A24. Kind of assay: Post-treatment assay, antiviral spectrum. In kind it is cell-based, Coxsackievirus A24. Here is the method: as §1, §2, §3

Consider `CC(=O)OC[C@]1(C)C(=O)CC[C@@]2(C)C(C/C=C3/C(=O)OC[C@@H]3Oc3cccc4cccnc34)=C(C)CC[C@@H]21` [ZAF-47, (14β)-(8′-Quinolinoxy)-3-ketone-9-dehydro-17-hydro-19-acetoxy–andrographolide], for which the viral titre entry in the assay with CV-B5 (10 µM, CV-B5-infected RD cells) is “reducing the viral titres of the above-listed enteroviruses significantly”; with CV-A24 (10 µM, CV-A24-infected RD cells), “reducing the viral titres of the above-listed enteroviruses significantly”. For the same compound, the half-maximal inhibitory concentration (IC50) was determined as 2460 nM in the assay with CV-B5 (CVB5, CV-B5, Enterovirus B, drug treatment duration 12 h, RD cells) and 1090 nM with CV-A24 (CVA24, CV-A24, Enterovirus C, drug treatment duration 12 h, RD cells). In the assay with EV-A71 virions, the “viral titre versus DMSO treatment” value is “no significant difference”.

Broadly, the IC50 is the concentration that inhibits the measured activity by half.
